Laboratory results from patent US20060034925A1, “Tumor targeting drug-loaded particles” (priority 2004, published 2006).

What was measured:
peritoneal cancer = conditions: intraperitoneal administration in patients; cited from earlier work
PANC1 = assay: cytotoxicity of paclitaxel, MTT assay; type: cell-based; conditions: Homo sapiens, PANC-1, read-out: concentration required to produce 50% cytotoxicity (IC50), 96 hour treatment, dissolved in water
Description: (§1) Drug effect was measured using the microtetrazolium dye reduction (MTT) assay.

Hs766T = assay: cytotoxicity of paclitaxel, MTT assay; type: cell-based; conditions: Homo sapiens, read-out: concentration required to produce 50% cytotoxicity (IC50), 96 hour treatment, dissolved in water
Description: as §1

MIA-PaCa = assay: cytotoxicity of paclitaxel, MTT assay; type: cell-based; conditions: Homo sapiens, MIA PaCa-2, read-out: concentration required to produce 50% cytotoxicity (IC50), 96 hour treatment, dissolved in water
Description: as §1

[1] = system: Human RT4 bladder transitional bladder cancer cells; assay: cytotoxicity in RT4 cells, sulforhodamine B assay; type: cell-based
[2] = system: multiple human tumor cells; conditions: treatment for 3 hours; cited from earlier work
[3] = retention of PLGA microparticles in peritoneal cavity; type: in vivo, mice; conditions: intraperitoneal administration; at 24 hours
Excerpt: Localization and disposition of PLGA microparticles within the peritoneal cavity after intraperitoneal administration was studied using rhodamine-loaded fluorescence microparticles. The disposition was compared with that of rhodamine in solution.

For `N.N.[Cl][Pt][Cl]` [cisplatin], the “extension of survival time” value (peritoneal cancer) is listed as “about 20%”.

`CC(=O)O[C@H]1C(=O)[C@@]2(C)[C@H]([C@H](OC(=O)c3ccccc3)[C@]3(O)C[C@H](OC(=O)[C@H](O)[C@@H](NC(=O)c4ccccc4)c4ccccc4)C(C)=C1C3(C)C)[C@]1(OC(C)=O)CO[C@@H]1C[C@@H]2O` [paclitaxel] gave an IC50 (PANC1) of 1.5 nM, an IC50 (Hs766T) of 0.7 nM and an IC50 (MIA-PaCa) of 0.7 nM. For the same molecule, the IC50 ([1]; RT-4, 48 h, RT4, 48 hour treatment, immediate effect) was 11 ± 0.4 nM, the IC50 ([1]; RT-4, 96 h, RT4, 96 hour treatment, immediate effect) was 4 ± 0.4 nM and the IC50 ([1]; RT-4, RT4, 15 minute treatment, delayed effect measured at 96 hours) was 157 ± 6.6 nM. The IC50 ([1]; RT-4, RT4, 2 hour treatment, delayed effect measured at 96 hours) was 33 ± 4.8 nM and the “concentration sufficient to induce apoptosis” value [2] was 200 nM.

In the case of `CCN(CC)c1ccc2c(-c3ccccc3C(=O)O)c3ccc(=[N+](CC)CC)cc-3oc2c1` [rhodamine in solution, rhodamine], the “localization in the peritoneal cavity (fluorescence)” value [3] is reported as “could no longer be observed in the peritoneal cavity”.
